Test results as given in patent US20190315823A1, “SMALL CATIONIC ANTI-BIOFILM AND IDR PEPTIDES” (priority 2013, published 2019).
Where two headings read alike, the source gives them in different places. Ends that are not written are not given here. Peptide text beside a SMILES is read from it.

Legend:
Assay type in all cases: cell-based
[1] = system: Pseudomonas aeruginosa (Pa) biofilm; experiment: static abiotic solid surface (microtiter, crystal violet) / Bioflux biofilm inhibition screen
Procedure: FIG. 1. Identification of new anti-biofilm peptides active against P. aeruginosa using the microtiter plate screening method with crystal violet staining. […] As a control peptide 1037 was utilized [de la Fuente Nunez et al. 2011].
Methods of assessment of anti-biofilm activity—Biofilm formation was initially analyzed using a static abiotic solid surface assay as described elsewhere (de la Fuente-Nunez et al., 2012). Dilutions (1/100) of overnight cultures were incubated in BM2 biofilm-adjusted medium [62 mM potassium phosphate buffer (pH 7), 7 mM (NH4)2SO4, 2 mM MgSO4, 10 μM FeSO4, 0.4% (wt/vol) glucose, 0.5% (wt/vol) Casamino Acids], or a nutrient medium such as Luria Broth, in polypropylene microtiter plates (Falcon, United States) in the absence (control) or presence of peptide. Peptide was added at time zero (prior to adding the diluted, overnight cultures) in varying concentrations, and the decrease in biofilm formation was recorded at 22-46 h for most bacteria. Planktonic cells were removed, biofilm cells adhering to the side of the tubes were stained with crystal violet, and absorbance at 595 nm was measured using a microtiter plate reader (Bio-Tek Instruments Inc., United States). Some peptides were screened against two Gram negative organisms, P. aeruginosa and K. pneumoniae using a Bioflux apparatus (AutoMate Scientific, Berkeley, Calif.; http://www.autom8.com/bioflux_biofilm.html), which allows for the high-throughput, real-time analysis of biofilms.

[2] = system: human peripheral blood mononuclear cells (MCP-1); experiment: MCP-1 chemokine production by ELISA
Procedure: FIG. 19. High production of anti-infective chemokine MCP-1 by human peripheral blood mononuclear cells treated with peptides, as determined by ELISA after 24 hours of stimulation.
Venous blood (20 ml) from healthy volunteers was collected in Vacutainer® collection tubes containing sodium heparin as an anticoagulant (Becton Dickinson, Mississauga, ON) in accordance with UBC ethical approval and guidelines. Blood was diluted 1:1 with complete RPMI 1640 medium and separated by centrifugation over a Ficoll-Paque® Plus (Amersham Biosciences, Piscataway, N.J., USA) density gradient. White blood cells were isolated from the buffy coat, washed twice in RPMI 1640 complete medium, and the number of peripheral blood mononuclear cells (PBMC) was determined by Trypan blue exclusion. PBMC (5×10^5) were seeded into 12-well tissue culture dishes (Falcon; Becton Dickinson) at 0.75 to 1×10^6 cells/ml at 37° C. in 5% CO2. The above conditions were chosen to mimic conditions for circulating blood monocytes entering tissues at the site of infection via extravasation.
Following incubation of the cells under various treatment regimens, the tissue culture supernatants were centrifuged at 1000×g for 5 min, then at 10,000×g for 2 min to obtain cell-free samples. Supernatants were aliquoted and then stored at −20° C. prior to assay for various chemokines by capture ELISA (eBioscience and BioSource International Inc., CA, USA respectively)

[3] = system: human peripheral blood mononuclear cells (MCP-1); experiment: SPOT-synthesized derivative screen: production of chemokine MCP-1; details: Table 12A, No LPS; for MCP1: background subtracted (21.3 pg/ml)
Outline: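 MCP-1 was quantified by capture ELISA in cleared culture supernatants of treated human peripheral blood mononuclear cells. Cells came from heparinized volunteer blood via Ficoll gradient and were seeded at 0.75 to 1×10^6 cells/ml (37 °C, 5% CO2).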

[4] = system: LPS-stimulated human peripheral blood mononuclear cells (IL1-β); details: Table 12A, cells stimulated with 10 ng/ml LPS; for Fold change in IL1β relative to no peptide LPS stimulated cells: 1002-2013 compared to LPS control of 889 pg/ml; for IL1β Production: LPS alone 984 pg/ml, starred values (1002-2013) determined separately, LPS alone 889 pg/ml
S. aureus biofilm = system: S. aureus biofilm
Procedure: (§1) Methods of assessment of anti-biofilm activity—Biofilm formation was initially analyzed using a static abiotic solid surface assay as described elsewhere (de la Fuente-Nunez et al., 2012). […] Planktonic cells were removed, biofilm cells adhering to the side of the tubes were stained with crystal violet, and absorbance at 595 nm was measured using a microtiter plate reader (Bio-Tek Instruments Inc., United States). Some peptides were screened against two Gram negative organisms, P. aeruginosa and K. pneumoniae using a Bioflux apparatus (AutoMate Scientific, Berkeley, Calif.; http://www.autom8.com/bioflux_biofilm.html), which allows for the high-throughput, real-time analysis of biofilms.

P. aeruginosa biofilm = system: P. aeruginosa biofilm
Procedure: as §1

[5] = concentration that reduced biofilm growth by 50%

Compound	Notes (IDR immunomodulatory activity) [2]	Fold increase in MCP1 cf. untreated cells [3]	MCP1 [3] [pg/mL]	Fold change in IL1β relative to no peptide LPS stimulated cells [4]	IL1β Production [4] [pg/mL]	MBIC50 S. aureus (S. aureus biofilm; [5]) [µg/mL]	MBIC50 P. aeruginosa (P. aeruginosa biofilm; [5]) [µg/mL]	further results
CC[C@H](C)[C@H](NC(=O)[C@H](C)N)C(=O)N[C@@H](CCCNC(=N)N)C(=O)N[C@H](C(=O)N[C@H](C(=O)N[C@@H](CCCNC(=N)N)C(=O)N[C@@H](C)C(=O)N[C@@H](CCCNC(=N)N)C(=O)N[C@@H](CC(C)C)C(=O)N[C@H](C(=O)N[C@@H](CCCNC(=N)N)C(=O)N[C@@H](CCCNC(=N)N)C(N)=O)C(C)C)C(C)C)C(C)C [Peptide 1009] (H-AIRVVRARLVRR-NH2; N-terminus assumed)	–	–	–	–	–	–	–	% Biofilm Inhibition Pa ([1]; Pa) biofilm, 10 μg/ml): 54%
CC[C@H](C)[C@H](NC(=O)[C@H](CCCNC(=N)N)NC(=O)[C@H](C)NC(=O)[C@@H](NC(=O)[C@H](CCCNC(=N)N)NC(=O)[C@H](C)NC(=O)[C@H](Cc1c[nH]c2ccccc12)NC(=O)[C@H](CCCNC(=N)N)NC(=O)[C@@H](N)C(C)C)C(C)C)C(=O)N[C@@H](CC(C)C)C(=O)N[C@@H](CCCNC(=N)N)C(=O)N[C@H](C(N)=O)C(C)C [HE3] (H-VRWARVARILRV-NH2; N-terminus assumed)	Weaker activity than 1018	–	–	–	–	–	–	–
N=C(N)NCCC[C@H](NC(=O)[C@H](CCCNC(=N)N)NC(=O)[C@H](Cc1c[nH]c2ccccc12)NC(=O)[C@H](Cc1c[nH]c2ccccc12)NC(=O)[C@H](CCCCN)NC(=O)[C@H](Cc1c[nH]c2ccccc12)NC(=O)[C@H](Cc1c[nH]c2ccccc12)NC(=O)[C@H](CCCNC(=N)N)NC(=O)[C@@H](N)CCCCN)C(N)=O [HHC36, reference compound] (H-KRWWKWWRR-NH2; N-terminus assumed)	–	–	–	–	–	–	–	activity vs. biofilms ([1]; statement referring to Table 2): completely inactive
RVLIRVARRVIW (RVLIRVARRVIW-NH2) [HE9]	Weaker activity than 1018	–	–	–	–	–	–	–
VRRIWRR (VRRIWRR-NH2) [EH1]	Weaker activity than 1018	–	–	–	–	–	–	–
CC[C@H](C)[C@H](NC(=O)[C@H](CCCNC(=N)N)NC(=O)[C@@H](NC(=O)[C@H](CCCCN)NC(=O)[C@@H](NC(=O)[C@@H](NC(=O)[C@H](CC(C)C)NC(=O)[C@H](CCCNC(=N)N)NC(=O)[C@@H](N)C(C)C)[C@@H](C)CC)C(C)C)C(C)C)C(=O)N[C@@H](Cc1c[nH]c2ccccc12)C(=O)N[C@@H](CCCNC(=N)N)C(=O)N[C@@H](CCCNC(=N)N)C(N)=O [Peptide 2001] (H-VRLIVKVRIWRR-NH2; N-terminus assumed)	–	765	16300	0.08	76	10	2.5	–
VRLIRVWRVIRK (VRLIRVWRVIRK-NH2) [HE7]	No secretion of MCP-1	–	–	–	–	–	–	–
CC[C@H](C)[C@H](NC(=O)[C@H](CC(C)C)NC(=O)[C@@H]1CCCN1C(=O)[C@H](CCCCN)NC(=O)[C@H](C)NC(=O)[C@@H](NC(=O)[C@@H](NC(=O)[C@@H](NC(=O)[C@@H](NC(=O)[C@H](CCCCN)NC(=O)[C@H](CCCCN)NC(=O)[C@H](C)NC(=O)[C@H](C)NC(=O)[C@H](CO)NC(=O)[C@@H](NC(=O)[C@H](CC(C)C)NC(=O)[C@H](CCCCN)NC(=O)[C@H](CCCCN)NC(=O)[C@@H](NC(=O)[C@H](Cc1ccccc1)NC(=O)[C@H](CO)NC(=O)[C@H](CCCCN)NC(=O)[C@H](Cc1c[nH]c2ccccc12)NC(=O)[C@@H](N)CCCCN)[C@@H](C)CC)[C@@H](C)O)C(C)C)C(C)C)[C@@H](C)O)[C@@H](C)O)C(=O)N[C@@H](CO)C(=O)N[C@@H](CO)C(N)=O [CP26] (H-KWKSFIKKLTSAAKKVVTTAKPLISS-NH2; N-terminus assumed)	–	–	–	–	–	–	–	% Biofilm Inhibition Pa ([1]; peptide 10 μg/ml): 62%
CC[C@H](C)[C@H](NC(=O)[C@H](CCCNC(=N)N)NC(=O)[C@@H](NC(=O)[C@H](CCCCN)NC(=O)[C@@H](NC(=O)[C@@H](NC(=O)[C@H](CC(C)C)NC(=O)[C@H](CCCNC(=N)N)NC(=O)[C@@H](N)C(C)C)[C@@H](C)CC)C(C)C)C(C)C)C(=O)N[C@@H](CCCNC(=N)N)C(=O)N[C@@H](CCCNC(=N)N)C(=O)N[C@@H](CCCNC(=N)N)C(N)=O [Peptide 2003] (H-VRLIVKVRIRRR-NH2; N-terminus assumed)	–	509	10848	1.07	1051	20	2.5	–
CC[C@H](C)[C@H](NC(=O)[C@H](CCCNC(=N)N)NC(=O)[C@@H](NC(=O)[C@H](CCCCN)NC(=O)[C@@H](NC(=O)[C@@H](NC(=O)[C@@H](NC(=O)[C@H](CCCNC(=N)N)NC(=O)[C@@H](N)C(C)C)C(C)C)[C@@H](C)CC)C(C)C)C(C)C)C(=O)N[C@@H](CCCNC(=N)N)C(=O)N[C@@H](CCCNC(=N)N)C(=O)N[C@@H](CCCNC(=N)N)C(N)=O [Peptide 2004] (H-VRVIVKVRIRRR-NH2; N-terminus assumed)	–	340	7226	0.56	549	20	2.5	–
CC[C@H](C)[C@H](NC(=O)[C@H](CCCNC(=N)N)NC(=O)[C@@H](NC(=O)[C@H](CCCCN)NC(=O)[C@@H](NC(=O)[C@@H](NC(=O)[C@H](Cc1c[nH]c2ccccc12)NC(=O)[C@H](CCCNC(=N)N)NC(=O)[C@@H](N)C(C)C)[C@@H](C)CC)C(C)C)C(C)C)C(=O)N[C@@H](CCCNC(=N)N)C(=O)N[C@@H](CCCNC(=N)N)C(=O)N[C@@H](CCCNC(=N)N)C(N)=O [Peptide 2006] (H-VRWIVKVRIRRR-NH2; N-terminus assumed)	–	316	6714	0.33	322	10	20	–
CC[C@H](C)[C@H](NC(=O)[C@H](CCCNC(=N)N)NC(=O)[C@@H](NC(=O)[C@H](CCCCN)NC(=O)[C@@H](NC(=O)[C@@H](NC(=O)[C@H](Cc1c[nH]c2ccccc12)NC(=O)[C@H](CCCNC(=N)N)NC(=O)[C@@H](N)CCCNC(=N)N)[C@@H](C)CC)C(C)C)C(C)C)C(=O)N[C@@H](CCCNC(=N)N)C(=O)N[C@@H](CCCNC(=N)N)C(=O)N[C@@H](CCCNC(=N)N)C(N)=O [Peptide 2008] (H-RRWIVKVRIRRR-NH2; N-terminus assumed)	–	2146	45524	0.25	250	–	–	MBIC50 S. aureus (S. aureus biofilm; biofilm): 10 µg/mL; MBIC50 P. aeruginosa (P. aeruginosa biofilm; biofilm): 10 µg/mL
CC[C@H](C)[C@H](NC(=O)[C@H](CCCNC(=N)N)NC(=O)[C@H](C)NC(=O)[C@H](CC(C)C)NC(=O)[C@@H](N)CCCNC(=N)N)C(=O)N[C@H](C(=O)N[C@H](C(=O)N[C@H](C(=O)N[C@@H](CCCNC(=N)N)C(=O)N[C@H](C(=O)N[C@@H](CCCNC(=N)N)C(=O)N[C@@H](CCCNC(=N)N)C(N)=O)C(C)C)[C@@H](C)CC)C(C)C)C(C)C [Peptide E3] (H-RLARIVVIRVRR-NH2; N-terminus assumed)	–	–	–	–	–	–	–	% Biofilm Inhibition Pa ([1]; Pa) biofilm, 10 μg/ml): 47%
